{"source": "ChEMBL document CHEMBL2331467", "about": "“Fungal transformation of cedryl acetate and α-glucosidase inhibition assay, quantum mechanical calculations and molecular docking studies of its metabolites” (Eur J Med Chem, 2013)"}
{"target": "Alpha-glucosidase MAL62 (Saccharomyces cerevisiae, UniProt P07265)", "sequence (P07265 whole entry)": "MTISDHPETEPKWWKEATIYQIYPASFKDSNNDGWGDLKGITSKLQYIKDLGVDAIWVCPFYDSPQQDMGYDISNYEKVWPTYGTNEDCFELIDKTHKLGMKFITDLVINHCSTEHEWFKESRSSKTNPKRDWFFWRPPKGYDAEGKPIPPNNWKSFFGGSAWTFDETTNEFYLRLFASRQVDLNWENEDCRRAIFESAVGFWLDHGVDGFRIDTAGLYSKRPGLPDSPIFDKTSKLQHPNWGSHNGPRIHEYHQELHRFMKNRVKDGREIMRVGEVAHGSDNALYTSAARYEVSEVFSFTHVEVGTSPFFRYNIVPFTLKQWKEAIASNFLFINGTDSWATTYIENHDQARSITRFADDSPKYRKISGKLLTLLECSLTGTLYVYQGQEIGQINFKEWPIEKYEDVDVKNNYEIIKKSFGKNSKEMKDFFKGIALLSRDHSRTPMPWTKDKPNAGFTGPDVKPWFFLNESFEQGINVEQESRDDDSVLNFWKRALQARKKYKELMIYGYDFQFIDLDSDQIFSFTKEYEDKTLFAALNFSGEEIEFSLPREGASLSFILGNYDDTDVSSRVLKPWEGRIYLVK", "test": "Inhibition of yeast alpha-glucosidase using para-nitrophenyl alpha-D-glucopyranoside as substrate by spectrophotometric analysis; call rule not given here"}
{"smiles": "CC(=O)O[C@]1(C)C[C@H](O)[C@@]23C[C@H]1C(C)(C)[C@@H]2C[C@H](O)[C@H]3C", "IC50": "Not Active"}
{"smiles": "CC(=O)O[C@]1(C)C[C@H](O)[C@@]23C[C@H]1C(C)(C)[C@@H]2CC[C@]3(C)O", "IC50": "690 µM"}
{"smiles": "C[C@@H]1CC[C@H]2C(C)(C)[C@H]3C[C@@]12CC[C@@]3(C)O", "note": "[CEDROL]", "IC50": "130 µM"}
{"smiles": "CC(=O)O[C@]1(C)CC[C@@]23C[C@H]1C(C)(C)[C@@H]2CC[C@H]3C", "note": "[CEDRYL ACETATE]", "IC50": "94 µM"}
{"smiles": "OC[C@H]1NC[C@H](O)[C@@H](O)[C@@H]1O", "note": "[DUVOGLUSTAT]", "IC50": "426 µM"}
